For one data set, the target named is BCL-2 (Homo sapiens (Human), UniProt P10415). The experiment in a line: BCL-2 TR-FRET Assay (primary PPI inhibition). The class given is binding. The settings on record: 60 min incubation, read-out: BCL2 IC50. Put shortly:
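His-tagged BCL-2 (3 ng) with anti-His Tb donor, dye-labeled acceptor and BCL-2 peptide ligand; compound added at 200× stock, final DMSO 0.5%. 60 min incubation, then TR-FRET read at 340 nm excitation, 620/665 nm emission, 60 µs delay, 500 µs integration.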

The test system of data set [1] is caspase-3 and -7 activities in RS4-11 cells. Briefly: Caspase-3/7 activation (Caspase-Glo 3/7) in RS4-11 cells. In kind it is cell-based. The settings on record: Homo sapiens, 3.5 h, read-out: Cas-3/7 EC50. Put shortly: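 RS4-11 cells exposed to graded compound concentrations for 3.5 h at 37 °C, 5% CO2. Caspase-3/7 activity then read as luminescence after 30 min at rt with a DEVD-based luminogenic substrate reagent.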

In a further data set the test system is MOLT-4 cells. Briefly: Cell viability assay (CellTiter-Glo), MOLT-4. The class given is cell-based. The settings on record: Homo sapiens, 72 h, 3 days of incubation. Put shortly:
(§1)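 4000 cells/well in DMEM (HEK293, adhered overnight) or RPMI (RS4-11, MOLT-4) with 10% FBS; compounds added at 0.2% DMSO final. After 3 days, viability read by CellTiter-Glo luminescence.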

Data set [2] in a line: Cell viability assay (CellTiter-Glo), HEK293. The settings on record: human, HEK293 cells, 3 days of incubation. The class given is cell-based. Put shortly: as §1
The next data set addresses BCL-xL (Homo sapiens (Human), UniProt Q07817). The experiment in a line: BCL-xL TR-FRET Assay (primary PPI inhibition). In kind it is binding. The settings on record: 60 min incubation, read-out: BCLxL IC50. Put shortly: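 TR-FRET competition of His-tagged BCL-xL (10.5 ng) binding to dye-labeled peptide ligand, with anti-His Tb donor; compound added from 200× stock, 0.5% DMSO final. After 60 min incubation, read at 340 nm excitation, 620/665 nm emission, 60 µs delay, 500 µs integration.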

Another data set concerns RS4-11 cells. The experiment in a line: Cell viability assay (CellTiter-Glo), RS4-11. The class given is cell-based. The settings on record: Homo sapiens, RS4-11, 72 h, 3 days of incubation. Put shortly:
as §1

A further data set deals with BCL-2 [G101V] (Homo sapiens (Human), UniProt P10415, G101V). Briefly: BCL-2 [G101V] TR-FRET Assay (primary PPI inhibition). The settings on record: 60 min incubation, read-out: BCL2[G101V] IC50. The class given is binding. The method, then:
Example C. BCL-2 [G101V]TR-FRET Assay
The following assay concentrations and times were used: 0.22 ng/μl of BCL-2 (SinoBiological, #10195-H08E1), 5 μL of 1:100 anti-His Tb-labeled donor, 5 μL of 1:100 Dye-labeled acceptor, 5 μL of 1:40 BCL-2 Peptide Ligand (BPS Bioscience, #50223), and 2 μL of 200× test compound, with 60 min incubation time (final concentration of DMSO 0.5%). The results of the assay were read using a plate reader with the following parameters: TR FRET, 340ex/620 and 665em; 60 usec Delay; and 500 usec integration.
Instrumentation: CLARIOstar Plus (BMG LABTECH); Biomek FX for liquid handling (Beckman Coulter).

Structures are written as SMILES. pEC50, pIC50: −log10 of the molar value.

Sequence of BCL-xL (Q07817 whole entry): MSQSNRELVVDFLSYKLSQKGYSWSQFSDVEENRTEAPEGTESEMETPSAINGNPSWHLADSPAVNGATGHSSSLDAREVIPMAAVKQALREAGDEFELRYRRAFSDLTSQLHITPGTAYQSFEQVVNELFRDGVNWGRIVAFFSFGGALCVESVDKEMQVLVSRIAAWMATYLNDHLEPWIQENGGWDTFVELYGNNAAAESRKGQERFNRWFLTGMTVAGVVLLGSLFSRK

For `COc1cccc(CN(C(=O)c2cc(-c3cc(Cl)ccc3C(=O)N3Cc4ccccc4C[C@H]3CN3CCOCC3)n3c2CCCC3)c2ccc(O)cc2)c1C` [Compound 4, 3-[5-chloro-2-[(3S)-3-(morpholinomethyl)-3,4-dihydro-1H-isoquinoline-2-carbonyl]phenyl]-N-(4-hydroxyphenyl)-N-[(3-methoxy-2-methyl-phenyl)methyl]-5,6,7,8-tetrahydroindolizine-1-carboxamide], the values for the pIC50 at BCL-2, at BCL-xL and at BCL-2 [G101V] were no less than 8.30, less than 5.30 and 6.00 to 7.00, respectively. Further, the pEC50 in data set [1] is no less than 6.70. The CC50 in the data set with MOLT-4 cells is no more than 5000 nM; with RS4-11 cells it was no more than 100 nM. In data set [2], this molecule had a CC50 at 3 days of 10000 to 25000 nM.

Take `COc1cccc(CN(C(=O)c2cc(-c3cc([N+](=O)[O-])ccc3C(=O)N3Cc4ccccc4C[C@H]3CN3CCOCC3)n(C)c2C)c2ccc3[nH]ncc3c2)c1C` [Compound 65, N-(1H-indazol-5-yl)-N-[(3-methoxy-2-methyl-phenyl)methyl]-1,2-dimethyl-5-[2-[(3S)-3-(morpholinomethyl)-3,4-dihydro-1H-isoquinoline-2-carbonyl]-5-nitro-phenyl]pyrrole-3-carboxamide]: the values for the pIC50 on BCL-2, at BCL-xL and on BCL-2 [G101V] were 7.30 to 8.00, less than 5.30 and less than 6.00, respectively. In addition, the pEC50 in data set [1] was less than 6.30. The CC50 in the data set on MOLT-4 cells was no more than 5000 nM; in the data set on RS4-11 cells it was greater than 200 nM. This molecule also displayed a CC50 at 3 days in data set [2] of 10000 to 25000 nM.

Take `COc1cccc(CN(C(=O)c2cc(-c3ccc(OC(F)F)cc3C(=O)N3Cc4ccccc4C[C@H]3CN3CCOCC3)n(C)c2C)c2ccc(O)cc2)c1C` [Compound 31, 5-[4-(difluoromethoxy)-2-[(3S)-3-(morpholinomethyl)-3,4-dihydro-1H-isoquinoline-2-carbonyl]phenyl]-N-(4-hydroxyphenyl)-N-[(3-methoxy-2-methyl-phenyl)methyl]-1,2-dimethyl-pyrrole-3-carboxamide]: the pIC50 on BCL-2 is 8.00 to 8.30; on BCL-xL, 5.30 to 5.70; on BCL-2 [G101V], less than 6.00. For the same molecule, in data set [1], the pEC50 is less than 6.30. Further, the CC50 was no more than 5000 nM in the data set on MOLT-4 cells and greater than 200 nM with RS4-11 cells. The same molecule displayed a CC50 at 3 days in data set [2] greater than 25000 nM.

In the case of `COc1cccc(CN(C(=O)c2cc(-c3cc(F)c(OC(F)F)cc3C(=O)N3Cc4ccccc4C[C@H]3CN3CCOCC3)n(C)c2C)c2ccc(O)cc2)c1C` [Compound 16, 5-[4-(difluoromethoxy)-5-fluoro-2-[(3S)-3-(morpholinomethyl)-3,4-dihydro-1H-isoquinoline-2-carbonyl]phenyl]-N-(4-hydroxyphenyl)-N-[(3-methoxy-2-methyl-phenyl)methyl]-1,2-dimethyl-pyrrole-3-carboxamide], the pIC50 at BCL-2 was 8.00 to 8.30; on BCL-xL, 5.30 to 5.70; at BCL-2 [G101V], less than 6.00. Also, in data set [1], the pEC50 was 6.30 to 6.70. For the same molecule, the CC50 with MOLT-4 cells was no more than 5000 nM; in the data set on RS4-11 cells, greater than 200 nM. Further, the CC50 at 3 days in data set [2] was greater than 25000 nM.

Consider `COc1cccc(CN(C(=O)c2cc(-c3cc(F)c(F)cc3C(=O)N3Cc4ccccc4C[C@H]3CN3CCOCC3)n(C)c2C)c2ccc(O)cc2)c1C` [Compound 51, 5-[4,5-difluoro-2-[(3S)-3-(morpholinomethyl)-3,4-dihydro-1H-isoquinoline-2-carbonyl]phenyl]-N-(4-hydroxyphenyl)-N-[(3-methoxy-2-methyl-phenyl)methyl]-1,2-dimethyl-pyrrole-3-carboxamide], for which the negative-log IC50 (pIC50) at BCL-2 is 7.30 to 8.00; at BCL-xL, 5.30 to 5.70; at BCL-2 [G101V], 6.00 to 7.00. Besides, the pEC50 in data set [1] was 6.30 to 6.70. The CC50 in the data set on MOLT-4 cells was no more than 5000 nM; with RS4-11 cells, 100 to 200 nM. The CC50 at 3 days in data set [2] was greater than 25000 nM.

Consider `COc1cccc(CN(C(=O)c2cc(-c3cc(Cl)c(OC(F)F)cc3C(=O)N3Cc4ccccc4C[C@H]3CN3CCOCC3)n(C)c2C)c2ccc(O)cc2)c1C` [Compound 36, 5-[5-chloro-4-(difluoromethoxy)-2-[(3S)-3-(morpholinomethyl)-3,4-dihydro-1H-isoquinoline-2-carbonyl]phenyl]-N-(4-hydroxyphenyl)-N-[(3-methoxy-2-methyl-phenyl)methyl]-1,2-dimethyl-pyrrole-3-carboxamide], for which the pIC50 on BCL-2 is 8.00 to 8.30; at BCL-xL, 5.30 to 5.70; at BCL-2 [G101V] it was 6.00 to 7.00. Further, the pEC50 in data set [1] was less than 6.30. Also, the CC50 was 5000 to 10000 nM with MOLT-4 cells and greater than 200 nM in the data set with RS4-11 cells. This molecule also returned a half-maximal cytotoxic concentration (CC50) at 3 days in data set [2] greater than 25000 nM.

For `Cc1c(C(=O)N(Cc2ccccc2C#N)c2ccc3[nH]ncc3c2)cc(-c2cc(Cl)ccc2C(=O)N2Cc3ccccc3C[C@H]2CN2CCOCC2)n1C` [Compound 68, 5-[5-chloro-2-[(3S)-3-(morpholinomethyl)-3,4-dihydro-1H-isoquinoline-2-carbonyl]phenyl]-N-[(2-cyanophenyl)methyl]-N-(1H-indazol-5-yl)-1,2-dimethyl-pyrrole-3-carboxamide], the pIC50 on BCL-2 was 7.30 to 8.00; at BCL-xL, less than 5.30; at BCL-2 [G101V], less than 6.00. The pEC50 in data set [1] was less than 6.30. The half-maximal cytotoxic concentration (CC50) in the data set on MOLT-4 cells is greater than 10000 nM; with RS4-11 cells, greater than 200 nM. In data set [2], this molecule came in with a CC50 at 3 days greater than 25000 nM.

In the case of `COc1cc(C(=O)N2Cc3ccccc3C[C@H]2CN2CCOCC2)c(-c2cc(C(=O)N(Cc3cccc(OC)c3C)c3ccc(O)cc3)c(C)n2C)cc1F` [Compound 21, 5-[5-fluoro-4-methoxy-2-[(3S)-3-(morpholinomethyl)-3,4-dihydro-1H-isoquinoline-2-carbonyl]phenyl]-N-(4-hydroxyphenyl)-N-[(3-methoxy-2-methyl-phenyl)methyl]-1,2-dimethyl-pyrrole-3-carboxamide], the pIC50 at BCL-2 was 7.30 to 8.00; on BCL-xL, 5.30 to 5.70; at BCL-2 [G101V], 6.00 to 7.00. The pEC50 in data set [1] is no less than 6.70. The CC50 with MOLT-4 cells is no more than 5000 nM; in the data set with RS4-11 cells, 100 to 200 nM. In addition, in data set [2], the CC50 at 3 days is greater than 25000 nM.

For the molecule `COc1cccc(CN(C(=O)c2cc(-c3cc(C(F)F)c(Cl)cc3C(=O)N3Cc4ccccc4C[C@H]3CN3CCOCC3)n(C)c2C)c2ccc(O)cc2)c1C` [Compound 43, 5-[4-chloro-5-(difluoromethyl)-2-[(3S)-3-(morpholinomethyl)-3,4-dihydro-1H-isoquinoline-2-carbonyl]phenyl]-N-(4-hydroxyphenyl)-N-[(3-methoxy-2-methyl-phenyl)methyl]-1,2-dimethyl-pyrrole-3-carboxamide], the pIC50 on BCL-2 was no less than 8.30; at BCL-xL, 5.30 to 5.70; on BCL-2 [G101V], 6.00 to 7.00. Also, in data set [1], the pEC50 is less than 6.30. The half-maximal cytotoxic concentration (CC50) with MOLT-4 cells was no more than 5000 nM; with RS4-11 cells, greater than 200 nM. The molecule also came in with a CC50 at 3 days in data set [2] greater than 25000 nM.

Take `COc1cccc(CN(C(=O)c2cc(-c3cc(Cl)ccc3C(=O)N3Cc4ccccc4C[C@H]3CN3CCOCC3)n(C)c2C)c2ccc(O)cc2)c1C` [Compound 7, 5-[5-chloro-2-[(3S)-3-(morpholinomethyl)-3,4-dihydro-1H-isoquinoline-2-carbonyl]phenyl]-N-(4-hydroxyphenyl)-N-[(3-methoxy-2-methyl-phenyl)methyl]-1,2-dimethyl-pyrrole-3-carboxamide]: the pIC50 at BCL-2 is no less than 8.30; on BCL-xL it was 5.30 to 5.70; on BCL-2 [G101V] it was no less than 7.00. Further, in data set [1], the pEC50 is no less than 6.70. The CC50 is 5000 to 10000 nM in the data set with MOLT-4 cells and no more than 100 nM in the data set with RS4-11 cells. In addition, the CC50 at 3 days in data set [2] was 10000 to 25000 nM.

Regarding `COc1ccccc1CN(C(=O)c1cc(-c2cc(F)ccc2C(=O)N2Cc3ccccc3C[C@H]2CN2CCOCC2)n(C)c1C)c1ccc(O)cc1` [Compound 54, 5-[5-fluoro-2-[(3S)-3-(morpholinomethyl)-3,4-dihydro-1H-isoquinoline-2-carbonyl]phenyl]-N-(4-hydroxyphenyl)-N-[(2-methoxyphenyl)methyl]-1,2-dimethyl-pyrrole-3-carboxamide], the pIC50 at BCL-2 was 8.00 to 8.30; at BCL-xL, no less than 5.70; on BCL-2 [G101V], no less than 7.00. Further, in data set [1], the pEC50 was less than 6.30. The CC50 with MOLT-4 cells is no more than 5000 nM; in the data set with RS4-11 cells, 100 to 200 nM. Further, the half-maximal cytotoxic concentration (CC50) at 3 days in data set [2] was greater than 25000 nM.

(Values after patent publication US20250115577A1, “BCL-2 Inhibitors” (Eil Therapeutics, Inc., priority 2021, published 2025).)
